Test results reported in the kinase profiling compilation of Christmann-Franck et al. (2016).

Key:
Assay in all cases: Caliper, Mobility shift assay off-chip
SGK3 (human) = SGK3 (human) (UniProt Q96BR1)
BRSK1 (human) = BRSK1 (human) (UniProt Q8TDC3)
[1] = test system: ABL1 (human), P00519 [T315I]
MAPK11 (human) = MAPK11 (human) (UniProt Q15759)
MARK1 (human) = MARK1 (human) (UniProt Q9P0L2)
FLT3 (human) = FLT3 (human) (UniProt P36888)
KDR (human) = KDR (human) (UniProt P35968)
MAPK13 (human) = MAPK13 (human) (UniProt O15264)
FGFR4 (human) = FGFR4 (human) (UniProt P22455)
IGF1R (human) = IGF1R (human) (UniProt P08069)
MAP4K4 (human) = MAP4K4 (human) (UniProt O95819)
PRKCZ (human) = PRKCZ (human) (UniProt Q05513)
Sequence of PRKCZ (human) (Q05513 whole entry, looked up): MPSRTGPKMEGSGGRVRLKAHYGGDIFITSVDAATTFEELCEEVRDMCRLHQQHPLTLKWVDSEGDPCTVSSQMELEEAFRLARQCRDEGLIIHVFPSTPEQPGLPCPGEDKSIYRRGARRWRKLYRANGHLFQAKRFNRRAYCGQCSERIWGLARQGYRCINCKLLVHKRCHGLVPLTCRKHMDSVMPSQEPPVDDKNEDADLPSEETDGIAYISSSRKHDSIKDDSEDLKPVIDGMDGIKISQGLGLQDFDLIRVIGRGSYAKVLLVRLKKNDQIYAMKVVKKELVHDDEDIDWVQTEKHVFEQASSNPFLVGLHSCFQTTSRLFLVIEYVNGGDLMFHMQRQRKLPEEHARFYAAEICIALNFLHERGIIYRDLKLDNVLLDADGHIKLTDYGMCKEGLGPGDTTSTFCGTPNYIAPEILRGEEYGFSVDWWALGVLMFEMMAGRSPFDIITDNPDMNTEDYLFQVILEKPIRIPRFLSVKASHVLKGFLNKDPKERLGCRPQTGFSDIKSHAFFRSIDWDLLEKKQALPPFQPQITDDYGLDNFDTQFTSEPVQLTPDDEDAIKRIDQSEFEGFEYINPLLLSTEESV

[2] = test system: FGFR2 (human), P21802 [N549H]
RPS6KA5 KD1 KD2 (human) = RPS6KA5 KD1 KD2 (human) (UniProt O75582)
PRKCH (human) = PRKCH (human) (UniProt P24723)
MAPK14 (human) = MAPK14 (human) (UniProt Q16539)
TSSK2 (human) = TSSK2 (human) (UniProt Q96PF2)
AURKC (human) = AURKC (human) (UniProt Q9UQB9)
Sequence of AURKC (human) (Q9UQB9 whole entry, looked up): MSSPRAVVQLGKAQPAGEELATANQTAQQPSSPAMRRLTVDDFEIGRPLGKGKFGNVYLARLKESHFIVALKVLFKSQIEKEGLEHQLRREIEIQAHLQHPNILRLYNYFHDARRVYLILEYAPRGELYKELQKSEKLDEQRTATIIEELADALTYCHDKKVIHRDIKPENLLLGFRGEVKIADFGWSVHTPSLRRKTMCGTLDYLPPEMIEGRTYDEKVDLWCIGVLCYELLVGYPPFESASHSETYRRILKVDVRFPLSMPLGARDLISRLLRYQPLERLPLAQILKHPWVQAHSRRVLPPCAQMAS

MARK3 (human) = MARK3 (human) (UniProt P27448)
Sequence of MARK3 (human) (P27448 whole entry, looked up): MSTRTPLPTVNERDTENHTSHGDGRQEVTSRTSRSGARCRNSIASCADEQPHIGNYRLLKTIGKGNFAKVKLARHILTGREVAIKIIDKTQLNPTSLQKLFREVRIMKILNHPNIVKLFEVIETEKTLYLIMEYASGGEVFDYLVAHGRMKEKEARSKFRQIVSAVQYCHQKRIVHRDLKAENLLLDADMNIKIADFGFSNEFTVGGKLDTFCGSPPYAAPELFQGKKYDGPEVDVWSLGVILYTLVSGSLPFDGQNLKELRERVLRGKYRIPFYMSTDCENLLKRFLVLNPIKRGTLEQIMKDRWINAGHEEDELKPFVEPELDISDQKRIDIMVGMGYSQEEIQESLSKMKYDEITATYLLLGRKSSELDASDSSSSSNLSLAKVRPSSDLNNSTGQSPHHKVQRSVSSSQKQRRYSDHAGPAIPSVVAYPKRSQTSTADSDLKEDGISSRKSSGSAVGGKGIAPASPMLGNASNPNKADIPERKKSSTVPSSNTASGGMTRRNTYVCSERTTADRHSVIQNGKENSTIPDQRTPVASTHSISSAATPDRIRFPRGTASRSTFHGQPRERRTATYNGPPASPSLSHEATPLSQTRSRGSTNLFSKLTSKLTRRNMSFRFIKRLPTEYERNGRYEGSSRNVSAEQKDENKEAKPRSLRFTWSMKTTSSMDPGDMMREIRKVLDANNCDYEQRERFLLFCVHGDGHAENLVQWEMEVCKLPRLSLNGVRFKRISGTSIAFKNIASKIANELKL

CSNK1A1 (human) = CSNK1A1 (human) (UniProt P48729)
BRSK2 (human) = BRSK2 (human) (UniProt Q8IWQ3)
Sequence of BRSK2 (human) (Q8IWQ3 whole entry, looked up): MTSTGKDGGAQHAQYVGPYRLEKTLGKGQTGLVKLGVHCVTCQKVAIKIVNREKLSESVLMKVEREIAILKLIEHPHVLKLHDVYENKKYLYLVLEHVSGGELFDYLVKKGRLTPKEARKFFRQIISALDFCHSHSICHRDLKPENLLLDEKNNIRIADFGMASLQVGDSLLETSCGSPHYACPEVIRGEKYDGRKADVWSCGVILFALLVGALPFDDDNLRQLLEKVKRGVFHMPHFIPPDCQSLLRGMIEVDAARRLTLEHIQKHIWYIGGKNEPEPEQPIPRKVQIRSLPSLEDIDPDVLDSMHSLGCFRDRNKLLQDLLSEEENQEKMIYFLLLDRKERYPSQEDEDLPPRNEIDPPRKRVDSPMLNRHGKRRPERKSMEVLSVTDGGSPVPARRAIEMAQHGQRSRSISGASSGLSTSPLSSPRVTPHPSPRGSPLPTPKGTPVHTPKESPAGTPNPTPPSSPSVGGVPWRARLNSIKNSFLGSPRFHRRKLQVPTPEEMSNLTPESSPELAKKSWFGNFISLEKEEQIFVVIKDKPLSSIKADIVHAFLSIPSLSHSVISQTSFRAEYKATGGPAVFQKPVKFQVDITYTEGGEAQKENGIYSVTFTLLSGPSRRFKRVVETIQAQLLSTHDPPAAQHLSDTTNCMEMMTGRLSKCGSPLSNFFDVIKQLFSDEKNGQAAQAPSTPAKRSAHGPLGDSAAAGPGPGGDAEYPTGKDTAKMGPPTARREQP

BTK (human) = BTK (human) (UniProt Q06187)
Sequence of BTK (human) (Q06187 whole entry, looked up): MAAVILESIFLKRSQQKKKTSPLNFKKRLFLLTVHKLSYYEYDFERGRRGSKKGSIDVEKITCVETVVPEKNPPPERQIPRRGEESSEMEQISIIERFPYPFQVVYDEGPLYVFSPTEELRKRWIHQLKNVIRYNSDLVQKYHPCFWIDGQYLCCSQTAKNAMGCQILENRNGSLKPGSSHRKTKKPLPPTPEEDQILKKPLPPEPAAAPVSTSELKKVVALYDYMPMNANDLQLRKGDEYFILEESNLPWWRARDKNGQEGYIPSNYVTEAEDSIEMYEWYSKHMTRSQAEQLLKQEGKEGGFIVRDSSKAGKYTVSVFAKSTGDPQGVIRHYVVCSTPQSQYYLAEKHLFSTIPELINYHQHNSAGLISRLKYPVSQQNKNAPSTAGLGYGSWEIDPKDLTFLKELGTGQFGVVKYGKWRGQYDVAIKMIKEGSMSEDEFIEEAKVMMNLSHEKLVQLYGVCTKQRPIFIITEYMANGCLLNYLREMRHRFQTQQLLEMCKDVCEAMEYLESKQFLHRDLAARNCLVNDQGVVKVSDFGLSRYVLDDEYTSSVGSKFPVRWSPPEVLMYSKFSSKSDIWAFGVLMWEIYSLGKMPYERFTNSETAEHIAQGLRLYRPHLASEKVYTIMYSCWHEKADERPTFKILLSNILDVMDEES

PRKCQ (human) = PRKCQ (human) (UniProt Q04759)
MARK2 (human) = MARK2 (human) (UniProt Q7KZI7)
PDGFRA (human) = PDGFRA (human) (UniProt P16234)
CSNK1D (human) = CSNK1D (human) (UniProt P48730)
Sequence of CSNK1D (human) (P48730 whole entry, looked up): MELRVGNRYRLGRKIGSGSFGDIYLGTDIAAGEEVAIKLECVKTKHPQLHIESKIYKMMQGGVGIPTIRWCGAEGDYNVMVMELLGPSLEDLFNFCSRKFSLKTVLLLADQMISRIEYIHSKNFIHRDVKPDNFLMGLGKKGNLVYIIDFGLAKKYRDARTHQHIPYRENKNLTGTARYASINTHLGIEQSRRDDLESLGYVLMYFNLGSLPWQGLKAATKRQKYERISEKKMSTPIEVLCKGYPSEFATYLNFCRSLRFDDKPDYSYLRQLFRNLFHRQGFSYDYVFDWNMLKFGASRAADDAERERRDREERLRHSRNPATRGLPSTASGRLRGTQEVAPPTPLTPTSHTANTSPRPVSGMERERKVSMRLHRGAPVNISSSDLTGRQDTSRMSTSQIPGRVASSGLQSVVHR

DCLK2 (human) = DCLK2 (human) (UniProt Q8N568)
ABL1 (human) = ABL1 (human) (UniProt P00519)
PRKACA (human) = PRKACA (human) (UniProt P17612)
PIM2 (human) = PIM2 (human) (UniProt Q9P1W9)
RPS6KA4 KD1 KD2 (human) = RPS6KA4 KD1 KD2 (human) (UniProt O75676)
MAPKAPK5 (human) = MAPKAPK5 (human) (UniProt Q8IW41)
RPS6KB1 (human) = RPS6KB1 (human) (UniProt P23443)
Sequence of RPS6KB1 (human) (P23443 whole entry, looked up): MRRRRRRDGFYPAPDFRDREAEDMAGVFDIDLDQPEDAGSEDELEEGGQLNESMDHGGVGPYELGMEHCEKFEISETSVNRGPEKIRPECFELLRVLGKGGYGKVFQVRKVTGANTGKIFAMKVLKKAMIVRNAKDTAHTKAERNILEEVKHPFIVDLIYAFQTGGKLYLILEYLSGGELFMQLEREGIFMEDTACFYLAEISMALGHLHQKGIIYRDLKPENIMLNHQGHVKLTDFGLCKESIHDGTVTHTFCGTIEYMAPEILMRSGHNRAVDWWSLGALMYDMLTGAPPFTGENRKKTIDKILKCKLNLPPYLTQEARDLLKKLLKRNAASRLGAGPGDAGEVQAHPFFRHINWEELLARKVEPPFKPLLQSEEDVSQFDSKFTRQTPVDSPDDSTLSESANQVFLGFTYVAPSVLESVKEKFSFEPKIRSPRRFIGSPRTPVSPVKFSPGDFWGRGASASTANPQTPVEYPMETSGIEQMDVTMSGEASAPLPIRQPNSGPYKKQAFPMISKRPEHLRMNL

Sequence of FLT3 (human) (P36888 whole entry, looked up): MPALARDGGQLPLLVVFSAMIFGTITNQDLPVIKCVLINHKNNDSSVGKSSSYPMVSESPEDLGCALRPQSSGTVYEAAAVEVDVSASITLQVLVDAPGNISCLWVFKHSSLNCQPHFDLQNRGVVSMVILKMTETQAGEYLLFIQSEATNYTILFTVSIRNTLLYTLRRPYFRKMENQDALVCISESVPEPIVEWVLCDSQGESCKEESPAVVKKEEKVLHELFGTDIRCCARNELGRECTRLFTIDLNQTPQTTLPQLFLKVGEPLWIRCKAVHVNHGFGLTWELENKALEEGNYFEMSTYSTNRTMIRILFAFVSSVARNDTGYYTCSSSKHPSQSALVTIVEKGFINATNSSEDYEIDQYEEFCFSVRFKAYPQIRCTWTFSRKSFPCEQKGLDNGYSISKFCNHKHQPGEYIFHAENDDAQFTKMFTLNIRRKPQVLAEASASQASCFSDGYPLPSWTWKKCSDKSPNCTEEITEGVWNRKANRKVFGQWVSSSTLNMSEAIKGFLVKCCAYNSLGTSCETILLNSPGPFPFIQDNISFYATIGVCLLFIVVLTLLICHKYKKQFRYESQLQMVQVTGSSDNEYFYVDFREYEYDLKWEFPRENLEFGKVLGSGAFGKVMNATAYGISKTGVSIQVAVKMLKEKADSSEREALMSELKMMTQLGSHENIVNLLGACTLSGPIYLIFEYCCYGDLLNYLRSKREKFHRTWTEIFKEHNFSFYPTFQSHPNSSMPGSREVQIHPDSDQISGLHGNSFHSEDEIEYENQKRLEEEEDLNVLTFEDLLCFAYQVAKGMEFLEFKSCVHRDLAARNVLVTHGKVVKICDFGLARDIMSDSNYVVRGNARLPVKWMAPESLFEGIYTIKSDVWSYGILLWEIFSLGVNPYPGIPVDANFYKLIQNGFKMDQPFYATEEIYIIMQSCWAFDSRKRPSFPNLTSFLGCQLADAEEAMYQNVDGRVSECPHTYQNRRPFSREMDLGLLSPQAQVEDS

SMILES: Cn1cc(-c2cnc3ccc4ccc(CS(=O)(=O)NC5CCCCC5)cc4c(=O)c3c2)cn1
- inhibition (SGK3 (human); compound 0.01 µM): 4.9%
- inhibition (SGK3 (human); compound 0.1 µM): 17.7%
- inhibition (BRSK1 (human); compound 0.01 µM): -2.1%
- inhibition (BRSK1 (human); compound 0.1 µM): -1.6%
- inhibition ([1]; compound 0.01 µM): 0.6%
- inhibition ([1]; compound 0.1 µM): 0.3%
- inhibition (MAPK11 (human); compound 0.01 µM): -7.7%
- inhibition (MAPK11 (human); compound 0.1 µM): 4.9%
- inhibition (MARK1 (human); compound 0.01 µM): 0.6%
- inhibition (MARK1 (human); compound 0.1 µM): 5.5%
- inhibition (FLT3 (human); compound 0.01 µM): -1%
- inhibition (FLT3 (human); compound 0.1 µM): -2.3%
- inhibition (KDR (human); compound 0.01 µM): 3.5%
- inhibition (KDR (human); compound 0.1 µM): -10%
- inhibition (MAPK13 (human); compound 0.01 µM): -5.2%
- inhibition (MAPK13 (human); compound 0.1 µM): -3%
- inhibition (FGFR4 (human); compound 0.01 µM): -3%
- inhibition (FGFR4 (human); compound 0.1 µM): 9.7%
- inhibition (IGF1R (human); compound 0.01 µM): 3.9%
- inhibition (IGF1R (human); compound 0.1 µM): -7.9%
- inhibition (MAP4K4 (human); compound 0.01 µM): -2.1%
- inhibition (MAP4K4 (human); compound 0.1 µM): 9.2%
- inhibition (PRKCZ (human); compound 0.01 µM): 1.8%
- inhibition (PRKCZ (human); compound 0.1 µM): 3.6%
- inhibition ([2]; compound 0.01 µM): -3.9%
- inhibition ([2]; compound 0.1 µM): 12.4%
- inhibition (RPS6KA5 KD1 KD2 (human); compound 0.01 µM): 3.4%
- inhibition (RPS6KA5 KD1 KD2 (human); compound 0.1 µM): -4.2%
- inhibition (PRKCH (human); compound 0.01 µM): -2.5%
- inhibition (PRKCH (human); compound 0.1 µM): -14.9%
- inhibition (MAPK14 (human); compound 0.01 µM): -1.7%
- inhibition (MAPK14 (human); compound 0.1 µM): -2.6%
- inhibition (TSSK2 (human); compound 0.01 µM): 2.5%
- inhibition (TSSK2 (human); compound 0.1 µM): 0.7%
- inhibition (AURKC (human); compound 0.01 µM): -1.6%
- inhibition (AURKC (human); compound 0.1 µM): 15.4%
- inhibition (MARK3 (human); compound 0.01 µM): -3.5%
- inhibition (MARK3 (human); compound 0.1 µM): -0.6%
- inhibition (CSNK1A1 (human); compound 0.01 µM): -2.8%
- inhibition (CSNK1A1 (human); compound 0.1 µM): 10.2%
- inhibition (BRSK2 (human); compound 0.01 µM): 0.3%
- inhibition (BRSK2 (human); compound 0.1 µM): 9.7%
- inhibition (BTK (human); compound 0.01 µM): 8.4%
- inhibition (BTK (human); compound 0.1 µM): 5.5%
- inhibition (PRKCQ (human); compound 0.01 µM): -6.4%
- inhibition (PRKCQ (human); compound 0.1 µM): -1.3%
- inhibition (MARK2 (human); compound 0.01 µM): -2.5%
- inhibition (MARK2 (human); compound 0.1 µM): -1.4%
- inhibition (PDGFRA (human); compound 0.01 µM): 0.2%
- inhibition (PDGFRA (human); compound 0.1 µM): 9%
- inhibition (CSNK1D (human); compound 0.01 µM): -3.5%
- inhibition (CSNK1D (human); compound 0.1 µM): 8.9%
- inhibition (DCLK2 (human); compound 0.01 µM): 1.7%
- inhibition (DCLK2 (human); compound 0.1 µM): 7.8%
- inhibition (ABL1 (human); compound 0.01 µM): 3.8%
- inhibition (ABL1 (human); compound 0.1 µM): 3.4%
- inhibition (PRKACA (human); compound 0.01 µM): 2.8%
- inhibition (PRKACA (human); compound 0.1 µM): -0.1%
- inhibition (PIM2 (human); compound 0.01 µM): -11%
- inhibition (PIM2 (human); compound 0.1 µM): 4.3%
- inhibition (RPS6KA4 KD1 KD2 (human); compound 0.01 µM): -2.3%
- inhibition (RPS6KA4 KD1 KD2 (human); compound 0.1 µM): -2.1%
- inhibition (MAPKAPK5 (human); compound 0.01 µM): -2.5%
- inhibition (MAPKAPK5 (human); compound 0.1 µM): 6.9%
- inhibition (RPS6KB1 (human); compound 0.01 µM): 8%
- inhibition (RPS6KB1 (human); compound 0.1 µM): 4.2%
